Activity calls are given as the source filed them. The rule behind the calls is not given here.

Assay [1] has as its system Plasmodium falciparum. Put plainly: In vitro antimalarial activity for Plasmodium falciparum at 0.50 uM/well dose at 24 hrs in Schizont maturation assay. In kind it is functional.
Assay [2] relates to Plasmodium falciparum. Put plainly: In vitro antimalarial activity for Plasmodium falciparum at 100 uM/well dose at 24 hrs in Schizont maturation assay. It is filed as functional.
The test system of assay [3] is Plasmodium falciparum. Put plainly: In vitro antimalarial activity for Plasmodium falciparum at 500 uM/well dose at 24 hrs in Schizont maturation assay. In kind it is functional.
Assay [4] relates to Plasmodium falciparum. Put plainly: In vitro antimalarial activity for Plasmodium falciparum at 0.10 uM/well dose at 24 hrs in Schizont maturation assay. In kind it is functional.
Assay [5] deals with Plasmodium falciparum. Put plainly: In vitro antimalarial activity for Plasmodium falciparum at 5 uM/well dose at 24 hrs in Schizont maturation assay. It is filed as functional.
The test system of assay [6] is Plasmodium falciparum. Put plainly: In vitro antimalarial activity for Plasmodium falciparum at 0.25 uM/well dose at 24 hrs in Schizont maturation assay. In kind it is functional.
In assay [7] the test system is Plasmodium falciparum. Put plainly: In vitro antimalarial activity for Plasmodium falciparum at 10 uM/well dose at 24 hrs in Schizont maturation assay. It is filed as functional.
Assay [8] concerns Plasmodium falciparum. The assay is described as follows: In vitro antimalarial activity for Plasmodium falciparum at 1 uM/well dose at 24 hrs in Schizont maturation assay. It is filed as functional.
Assay [9] has as its system Plasmodium falciparum. The assay is described as follows: In vitro antimalarial activity for Plasmodium falciparum at 50 uM/well dose at 24 hrs in Schizont maturation assay. In kind it is functional.
Assay [10] deals with Plasmodium falciparum. The assay is described as follows: In vitro inhibition of Plasmodium falciparum at 25 uM/well dose at 72 hrs in total parasite growth assay. It is filed as functional.
In assay [11] the test system is Plasmodium falciparum. Put plainly: In vitro inhibition of Plasmodium falciparum at 100 uM/well dose at 72 hrs in total parasite growth assay. In kind it is functional.
Assay [12] deals with Plasmodium falciparum. The assay is described as follows: In vitro inhibition of Plasmodium falciparum at 10 uM/well dose at 72 hrs in total parasite growth assay. It is filed as functional.
The test system of assay [13] is Plasmodium falciparum. Put plainly: In vitro inhibition of Plasmodium falciparum at 5 uM/well dose at 72 hrs in total parasite growth assay. In kind it is functional.
Assay [14] concerns Plasmodium falciparum. Put plainly: In vitro inhibition of Plasmodium falciparum at 0.25 uM/well dose at 72 hrs in total parasite growth assay. It is filed as functional.
Assay [15] concerns Plasmodium falciparum. The assay is described as follows: In vitro inhibition of Plasmodium falciparum at 2.5 uM/well dose at 72 hrs in total parasite growth assay. It is filed as functional.
Assay [16] has as its system Plasmodium falciparum. The assay is described as follows: In vitro inhibition of Plasmodium falciparum at 1.0 uM/well dose at 72 hrs in total parasite growth assay. In kind it is functional.
In assay [17] the test system is Plasmodium falciparum. The assay is described as follows: In vitro inhibition of Plasmodium falciparum at 0.5 uM/well dose at 72 hrs in total parasite growth assay. It is filed as functional.
In assay [18] the test system is Mus musculus. Put plainly: Antimalarial activity against Plasmodium berghei evaluated in terms of mean survival time for mice (Mus musculus) at a dose of 160 mg/kg. In kind it is functional.
For assay [19], the system named is Mus musculus. The assay is described as follows: In vivo anti-malarial activity against Plasmodium berghei in mice (Mus musculus) at a dose of 160 mg/kg; Active. The arrangement: dose 160 mg/kg. In kind it is functional, organism-based.
Assay [20] concerns Plasmodium falciparum. Put plainly: In vitro antimalarial activity for Plasmodium falciparum at 20 uM/well dose at 24 hrs in Schizont maturation assay. In kind it is functional.
Assay [21] relates to Mus musculus. Put plainly: Antimalarial activity against Plasmodium berghei evaluated in terms of mean survival time for mice (Mus musculus) at a dose of 40 mg/kg. In kind it is functional.
The test system of assay [22] is Plasmodium falciparum. The assay is described as follows: In vitro inhibition of Plasmodium falciparum at 50 uM/well dose at 72 hrs in total parasite growth assay. It is filed as functional.
Assay [23] concerns Mus musculus. Put plainly: Antimalarial activity against Plasmodium berghei evaluated in terms of mean survival time for mice (Mus musculus) at a dose of 80 mg/kg. It is filed as functional.
Assay [24] deals with Plasmodium falciparum. The assay is described as follows: In vitro antimalarial activity for Plasmodium falciparum at 2.5 uM/well dose at 24 hrs in Schizont maturation assay. It is filed as functional.
The subject of assay [25] is Plasmodium falciparum. The assay is described as follows: In vitro inhibition of Plasmodium falciparum at 20 uM/well dose at 72 hrs in total parasite growth assay. In kind it is functional.
Assay [26] deals with Mus musculus. The assay is described as follows: Anti-malarial activity against Plasmodium berghei evaluated in terms of mean survival time for mice (Mus musculus) at a dose of 20 mg/kg. It is filed as functional.

In the assay on Plasmodium falciparum [1], `C=C(C#N)C(O)c1ccc(OC)c(OC)c1` (centres undefined) showed an inhibition at 0.5 µM of 0%. The inhibition at 100 µM in the assay with Plasmodium falciparum [2] stood at 100%. The same compound registered an inhibition at 500 µM in the assay on Plasmodium falciparum [3] of 100%. Besides, the inhibition at 0.1 µM in the assay on Plasmodium falciparum [4] is 0%. In the assay on Plasmodium falciparum [5], this compound had an inhibition at 5 µM of 21%. In the assay on Plasmodium falciparum [6], this compound gave an inhibition at 0.25 µM of 0%. Also, in the assay on Plasmodium falciparum [7], the inhibition at 10 µM turned out to be 42%. Testing at 1 µM with Plasmodium falciparum [8] gave an inhibition of 5.26%. This compound also came in with an inhibition at 50 µM in the assay with Plasmodium falciparum [9] of 71%.

As for `C=C(C(=O)OC)C(O)c1ccco1` (centres undefined), the PGI in the assay on Plasmodium falciparum [10] is reported as 100%; with Plasmodium falciparum [11], 100%; in the assay on Plasmodium falciparum [12], 98%; in the assay on Plasmodium falciparum [13], 85.7%; with Plasmodium falciparum [14] it was 0%; with Plasmodium falciparum [15], 42.8%. The same compound returned a PGI in the assay on Plasmodium falciparum [16] of 20%.

For `C=C(C#N)C(O)c1ccco1` (centres undefined), the PGI in the assay with Plasmodium falciparum [10] amounted to 84%; in the assay on Plasmodium falciparum [11], 100%; in the assay with Plasmodium falciparum [12] it was 79%; in the assay on Plasmodium falciparum [13], 68.6%; in the assay with Plasmodium falciparum [17], 14%; with Plasmodium falciparum [15], 40%. The compound further gave a PGI in the assay on Plasmodium falciparum [16] of 31.4%.

For `C=C(C#N)C(OCCC#N)c1ccc2c(c1)OCO2` (centres undefined), the Mean survival time in the assay on Mus musculus [18] is 14.2 days; in the assay with Mus musculus [21] it was 9.2 days; with Mus musculus [23], 11.4 days; in the assay on Mus musculus [26] it was 7.8 days. In the assay with Plasmodium falciparum [1], this compound came in with an inhibition at 0.5 µM of 36%. In addition, the result in the assay on Mus musculus [19] was Active. In the assay on Plasmodium falciparum [20], this compound registered an inhibition at 20 µM of 100%. In addition, testing at 100 µM with Plasmodium falciparum [2] gave an inhibition of 100%. In addition, the PGI amounted to 100% in the assay on Plasmodium falciparum [11]; 90% with Plasmodium falciparum [12]; 100% in the assay on Plasmodium falciparum [22]; 52.5% with Plasmodium falciparum [13]; 0% with Plasmodium falciparum [14]; 95% with Plasmodium falciparum [25]. For the same compound, the PGI is given as 10% in the assay with Plasmodium falciparum [17], 40% in the assay with Plasmodium falciparum [15] and 25% with Plasmodium falciparum [16]. The same compound yielded an inhibition at 0.1 µM with Plasmodium falciparum [4] of 0%. In the assay on Plasmodium falciparum [5], this compound came in with an inhibition at 5 µM of 64%. This compound also displayed an inhibition at 0.25 µM with Plasmodium falciparum [6] of 6%. In addition, the inhibition at 2.5 µM in the assay with Plasmodium falciparum [24] was determined as 57%. The compound also registered an inhibition at 10 µM with Plasmodium falciparum [7] of 93%. In the assay with Plasmodium falciparum [8], this compound came in with an inhibition at 1 µM of 43%. This compound also gave an inhibition at 50 µM in the assay with Plasmodium falciparum [9] of 100%.

With `C=C(CCC(C)=O)C(C)=O`, the PGI with Plasmodium falciparum [10] is listed as 100%; with Plasmodium falciparum [11] it was 100%; with Plasmodium falciparum [12], 100%; with Plasmodium falciparum [13] it was 88.6%; in the assay on Plasmodium falciparum [15] it was 65.7%; in the assay on Plasmodium falciparum [16], 8.6%. In addition, the inhibition at 100 µM with Plasmodium falciparum [2] amounted to 100%. This compound also had an inhibition at 500 µM with Plasmodium falciparum [3] of 100%. The compound further came in with an inhibition at 5 µM in the assay with Plasmodium falciparum [5] of 100%. This compound displayed an inhibition at 10 µM with Plasmodium falciparum [7] of 100%. For the same compound, the inhibition at 1 µM in the assay on Plasmodium falciparum [8] was 52.6%. Further, the inhibition at 50 µM with Plasmodium falciparum [9] worked out at 100%.

What is called inhibition is the relative decrease from the control value, in per cent. A lower inhibition goes with little suppression.
